Each structure is given as a SMILES string. Where only a bound is given, the exact number is not on record here.

What is called IC50 is the point on the concentration scale where inhibition reaches its midpoint.

This experiment has as its system Human peripheral blood mononuclear cells (PBMCs) as Responder cells, RPMI 1788 Stimulator cells. The experiment can be described thus: Mixed Lymphocyte Reaction (MLR) test. The class given is cell-based. The note with it: Homo sapiens, RPMI-1788, lowest concentration giving 50% inhibition of the MLR; 6 days coculture, 3H-thymidine incorporation. The procedure:
Human peripheral blood mononuclear cells (PBMCs) were isolated from buffy coats, obtained from healthy blood donors by Ficoll (Lymphoprep, Axis-Shield PoC AS, Oslo, Norway) density-gradient centrifugation. The cells at the Ficoll-plasma interface were washed three times and used as “Responder” cells. RPMI 1788 (ATCC, N^o CCL-156) cells were treated with mitomycin C (Kyowa, Nycomed, Brussel, Belgium) and used as “Stimulator” cells. Responder cells (0.12×10^6), Stimulator cells (0.045×10^6) and compounds (in different concentrations) were cocultured for 6 days in RPMI 1640 medium (BioWhittaker, Lonza, Belgium) supplemented with 10% fetal calf serum, 100 U/ml Geneticin (Gibco, LifeTechnologies, UK). Cells were cultured in triplicate in flat-bottomed 96-well microtiter tissue culture plates (TTP, Switzerland). After 5 days, cells were pulsed with 1 μCi of methyl-^3H thymidine (MP Biomedicals, USA), harvested 18 h later on glass filter paper and counted. Proliferation values were expressed as counts per minute (cpm), and converted to % inhibition with respect to a blank MLR test (identical but without added compound). […]
On the technique in general: Dividing cells build labelled thymidine or BrdU into new DNA.

Turning to `Nc1nc(N2CCN(C(=O)COc3ccc(Cl)cc3Cl)CC2)c2nc(-c3ccc(F)cc3)sc2n1` [Example 212, 1-(4-(5-amino-2-(4-fluorophenyl)thiazolo[5,4-d]pyrimidin-7-yl)piperazin-1-yl)-2-(2,4-dichlorophenoxy)ethanone], inhibition was half-maximal at 375 nM (IC50).

In the case of `Nc1nc(N2CCN(CC(=O)N3CCOCC3)CC2)c2nc(-c3ccc(F)cc3)sc2n1` [Example 38, 2-(4-(5-amino-2-(4-fluorophenyl)thiazolo[5,4-d]pyrimidin-7-yl)piperazin-1-yl)-1-morpholinoethanone], the IC50 was 4800 nM. Against the preceding molecule, the IC50 is about 13-fold higher. The same measure for `Cc1cccc(NC(=O)N2CCN(c3nc(N)nc4sc(CCc5ccc(F)cc5)nc34)CC2)c1` [Example 133, 5-amino-2-[2-(4-fluorophenyl)ethyl]-7-(4-m-tolylcarbamoylpiperazin-1-yl)-thiazolo[5,4-d]pyrimidine]: over 10000 nM; for `Cc1cccc(NC(=O)N2CCCN(c3nc(N)nc4[nH]c(-c5ccc(F)cc5)nc34)CC2)c1` [Example 422, 4-(2-amino-8-(4-fluorophenyl)-9H-purin-6-yl)-N-m-tolyl-1,4-diazepane-1-carboxamide]: 1180 nM. Under `Nc1nc(N2CCN(C(=O)COc3ccc(Cl)cc3)CC2)c2nc(-c3ccc(F)cc3)n(Cc3ccccc3)c2n1` [Example 431, 1-(4-(2-amino-9-benzyl-8-(4-fluorophenyl)-9H-purin-6-yl)piperazin-1-yl)-2-(4-chlorophenoxy)ethanone] stands over 10000 nM; under `Nc1nc(N2CCN(C(=O)COc3ccc(Cl)cc3)CC2)c2nc(CCc3ccc(Br)cc3)sc2n1` [Example 299, 1-(4-(5-amino-2-(4-bromophenethyl)thiazolo[5,4-d]pyrimidin-7-yl)piperazin-1-yl)-2-(4-chlorophenoxy)ethanone], 3110 nM; under `COc1cccc(CCc2nc3c(N4CCN(C(=O)COc5ccc(Br)cc5)CC4)nc(N)nc3s2)c1` [Example 254, 1-(4-(5-amino-2-(3-methoxyphenethyl)thiazolo[5,4-d]pyrimidin-7-yl)piperazin-1-yl)-2-(4-bromophenoxy)ethanone], 1220 nM.

For the molecule `COc1ccc(OCC(=O)N2CCN(c3nc(N)nc4sc(-c5ccc(F)cc5)nc34)CC2)cc1` [Example 234, 1-(4-(5-amino-2-(4-fluorophenyl)thiazolo[5,4-d]pyrimidin-7-yl)piperazin-1-yl)-2-(4-methoxyphenoxy)ethanone], 37 nM corresponded to half-maximal inhibition (IC50). The same measure for `Nc1nc(N2CCN(C(=O)CCc3ccccc3)CC2)c2nc(CCc3ccc(F)cc3)sc2n1` [Example 136, 5-amino-2-[2-(4-fluorophenyl)ethyl]-7-[4-(3-phenylpropionyl)piperazin-1-yl]-thiazolo[5,4-d]pyrimidine]: over 10000 nM; for `Nc1nc(N2CCN(C(=O)COc3cccc(Cl)c3)CC2)c2nc(CCc3ccc(F)cc3)sc2n1` [Example 228, 1-(4-(5-amino-2-(4-fluorophenethyl)thiazolo[5,4-d]pyrimidin-7-yl)piperazin-1-yl)-2-(3-chlorophenoxy)ethanone]: 1720 nM; for `CC(C)(Oc1ccc(Cl)cc1)C(=O)N1CCN(c2nc(N)nc3sc(-c4ccc(F)cc4)nc23)CC1` [Example 237, 1-(4-(5-amino-2-(4-fluorophenyl)thiazolo[5,4-d]pyrimidin-7-yl)piperazin-1-yl)-2-(4-chlorophenoxy)-2-methylpropan-1-one]: over 10000 nM. Under `Nc1nc(N2CCN(C(=O)Nc3ccc(Br)cc3)CC2)c2nc(-c3ccc(F)cc3)sc2n1` [Example 218, 4-(5-amino-2-(4-fluorophenyl)thiazolo[5,4-d]pyrimidin-7-yl)-N-(4-bromophenyl)piperazine-1-carboxamide] stands 177 nM. Under `Nc1nc(N2CCN(C(=O)c3cccc4ccccc34)CC2)c2nc(-c3ccc(F)cc3)[nH]c2n1` [Example 406, (4-(2-amino-8-(4-fluorophenyl)-9H-purin-6-yl)piperazin-1-yl)(naphthalen-1-yl)methanone] stands 6400 nM. As for `Nc1nc(N2CCN(C(=O)COc3ccc(Cl)cc3)CC2)c2nc(-c3ccc(C(F)(F)F)cc3)[nH]c2n1` [Example 394, 1-(4-(2-amino-8-(4-(trifluoromethyl)phenyl)-9H-purin-6-yl)piperazin-1-yl)-2-(4-chlorophenoxy)ethanone], the IC50 was found to be 630 nM.

`CC(=O)c1ccc(OCC(=O)N2CCN(c3nc(N)nc4sc(CCc5ccc(F)cc5)nc34)CC2)cc1` [Example 227, 2-(4-acetylphenoxy)-1-(4-(5-amino-2-(4-fluorophenethyl)thiazolo[5,4-d]pyrimidin-7-yl)piperazin-1-yl)ethanone] came in with an IC50 of 610 nM. The molecule `Nc1nc(N2CCN(C(=O)COc3ccc(Cl)cc3)CC2)c2nc(SCc3ccccc3)[nH]c2n1` [Example 426, 1-(4-(2-amino-8-(benzylthio)-9H-purin-6-yl)piperazin-1-yl)-2-(4-chlorophenoxy)ethanone] returned an IC50 of 3280 nM. Under `Cc1cccc(NC(=O)N2CCN(c3nc(N)nc4sc(-c5cccnc5)nc34)CC2)c1` [Example 276, 4-(5-amino-2-(pyridin-3-yl)thiazolo[5,4-d]pyrimidin-7-yl)-N-m-tolylpiperazine-1-carboxamide] stands 1 nM. The molecule `Nc1nc(N2CCN(C(=O)c3cccnc3)CC2)c2cc(-c3ccc(F)cc3)sc2n1` [Example 346, (4-(2-amino-6-(4-fluorophenyl)thieno[2,3-d]pyrimidin-4-yl)piperazin-1-yl)(pyridin-3-yl)methanone] had an IC50 of over 10000 nM. The molecule `Nc1nc(N2CCN(CCOc3ccccc3)CC2)c2cc(-c3ccccc3)sc2n1` [Example 337, 4-(4-(2-phenoxyethyl)piperazin-1-yl)-6-phenylthieno[2,3-d]pyrimidin-2-amine] yielded an IC50 of 9640 nM. The same measure for `COc1ccc(OCC(=O)N2CCN(c3nc(N)nc4sc(CCc5cccc(OC)c5)nc34)CC2)cc1` [Example 253, 1-(4-(5-amino-2-(3-methoxyphenethyl)thiazolo[5,4-d]pyrimidin-7-yl)piperazin-1-yl)-2-(4-methoxyphenoxy)ethanone]: 710 nM; for `Nc1nc(N2CCN(C(=O)Nc3ccc(F)cc3F)CC2)c2nc(-c3ccc(F)cc3)sc2n1` [Example 217, 4-(5-amino-2-(4-fluorophenyl)thiazolo[5,4-d]pyrimidin-7-yl)-N-(2,4-difluorophenyl)piperazine-1-carboxamide]: 345 nM. The same measure for `Nc1nc(N2CCN(C(=O)COc3ccccc3)CC2)c2cc(-c3ccccc3)sc2n1` [Example 332, 1-(4-(2-amino-6-phenylthieno[2,3-d]pyrimidin-4-yl)piperazin-1-yl)-2-phenoxyethanone]: 780 nM; for `COc1ccc(OCC(=O)N2CCN(c3nc(N)nc4sc(Cc5ccc(F)cc5)nc34)CC2)cc1` [Example 230, 1-(4-(5-amino-2-(4-fluorobenzyl)thiazolo[5,4-d]pyrimidin-7-yl)piperazin-1-yl)-2-(4-methoxyphenoxy)ethanone]: 270 nM; for `Nc1nc(N2CCN(C(=O)Cc3cccs3)CC2)c2nc(-c3ccc(F)cc3)[nH]c2n1` [Example 403, 1-(4-(2-amino-8-(4-fluorophenyl)-9H-purin-6-yl)piperazin-1-yl)-2-(thiophen-2-yl)ethanone]: 7080 nM.

In the case of `Nc1nc(N2CCN(C(=O)COc3ccc(Cl)cc3)CC2)c2nc(-c3ccccn3)sc2n1` [Example 282, 1-(4-(5-amino-2-(pyridin-2-yl)thiazolo[5,4-d]pyrimidin-7-yl)piperazin-1-yl)-2-(4-chlorophenoxy)ethanone], the IC50 was 229 nM. `Nc1nc(N2CCN(C(=O)COc3cccc(Cl)c3)CC2)c2nc(-c3ccc(F)cc3)sc2n1` [Example 214, 1-(4-(5-amino-2-(4-fluorophenyl)thiazolo[5,4-d]pyrimidin-7-yl)piperazin-1-yl)-2-(3-chlorophenoxy)ethanone] gave an IC50 of 121 nM. As for `CN(C(=O)CN1CCN(c2nc(N)nc3sc(CCc4ccc(F)cc4)nc23)CC1)c1ccccc1` [Example 139, 5-amino-2-[2-(4-fluorophenyl)ethyl]-7-(4-[(methylphenylcarbamoyl)-methyl]piperazin-1-yl)-thiazolo[5,4-d]pyrimidine], it took 3290 nM to reach half-maximal inhibition (IC50). Under `Nc1nc(N2CCN(C(=O)Cc3ccc(Cl)cc3)CC2)c2nc(CCc3ccc(F)cc3)oc2n1` [Example 194, 5-amino-2-[2-(4-fluorophenyl)ethyl]-7-(4-[2-(4-chlorophenyl)acetyl]-piperazin-1-yl)-oxazolo[5,4-d]pyrimidine] stands 9040 nM; under `Nc1nc(N2CCN(CCOc3ccccc3)CC2)c2nc(CCc3ccc(F)cc3)sc2n1` [Example 149, 5-amino-2-[2-(4-fluorophenyl)ethyl]-7-(4-(2-phenoxyethyl)piperazin-1-yl)-thiazolo[5,4-d]pyrimidine], 5760 nM; under `Nc1nc(N2CCOCC2)c2nc(Cc3ccc(F)cc3)sc2n1` [Example 34, 2-(4-fluorobenzyl)-7-morpholino-thiazolo[5,4-d]pyrimidin-5-amine], over 10000 nM.

In turn, `Nc1nc(N2CCN(C(=O)COc3ccc(Cl)cc3)CC2)c2nc(CCCCc3ccc(F)cc3)sc2n1` [Example 292, 1-(4-(5-amino-2-(4-(4-fluorophenyl)butyl)thiazolo[5,4-d]pyrimidin-7-yl)piperazin-1-yl)-2-(4-chlorophenoxy)ethanone] came in with an IC50 of 920 nM.
